Reference: patent publication US8329643B2, “PIMAP39 modulates LPS-induced inflammatory response” (Trustees of Boston University, priority 2008, dated 2012)

Tests used:
[1] = test system: LPS-induced TNF-α production; assay: Effects of inhibitors on LPS-induced TNF-α production in THP-1 cells (ELISA); assay type: cell-based, human; settings: for LPS-induced TNF-α expression compared to LPS alone / TNF-α levels within 8-10 hrs post treatment: THP-1 cells; for LPS-induced TNF-α expression compared to LPS alone: 0.1 μg/ml E. coli LPS, 10 μM sodium orthovanadate, 20 μM AG490, U0126 or SB203580, ELISA 2-16 hours; for TNF-α levels within 8-10 hrs post treatment: LPS + inhibitor, ELISA
Experimental: THP-1 cells were differentiated with 100 nM phorbol-12-myristate-13-acetate (PMA) and seeded (1×10^5) in 6-well plates overnight. After washing by PBS, cells were stimulated with 0.1 mg/ml E. coli LPS for 3 hrs. The cells were washed with PBS again and treated with various inhibitors. 10 μM Sodium orthovandate, 20μM AG490, 20μM U0126, 20μM SB203580 or untreated as control. 200μl of supernatant was collected for ELISA assay (A) from each treatment at 2, 4, 6, 8, 12, 14 and 16 hours and its corresponding mRNA was prepared for RT-PCR (B) by first extracting total RNA from the treated cells using QIAQuick™ RNA miniprep (Qiagen). 1μg of each RNA was used to generate cDNA with Platinum® Quantitative RT-PCR ThermoScript™ One-Step System kit (Invitrogen). 10 ng pf cDNA from each test was PCRed using PTP4A3 forward primer 5′-[…]-3′ [SEQ ID NO: 2] and reverse primer 5′-[…]-3′ [SEQ ID NO: 3]. Another 1 ng of cDNA was PCRed using GAPDH primer pairs (Invitrogen) as control. Densitometric analysis (C) of RT-PCR (B) with intensity values normalized to GAPDH and using 0 hour value as reference intensity.
AG490, U0126 and SB203580 were purchased from EMD Biosciences (San Diego, Calif.). Sodium orthovanadate was purchased from Sigma-Aldrich (Saint Louis, Mo.). Human THP-1 cells were treated with 10 μM Sodium orthovanadate (PTP4A3 inhibitor [Greenwel, P, et al., (1995) Tyrosine dephosphorylation of nuclear proteins mimics transforming growth factor beta 1 stimulation of alpha 2(1) collagen gene expression. Mol Cell Biol 15:6813-6819], 20 μM AG490 (JAK inhibitor [Saudemont, A, et al., (2007) Dormant tumor cells develop cross-resistance to apoptosis induced by CTLs or imatinib mesylate via methylation of suppressor of cytokine signaling 1. Cancer Res 67:4491-4498], 20 μM U0126 (ERK inhibitor [Yang, L, et al., (2007) Inhibition of epidermal growth factor receptor signaling elevates 15-hydroxyprostaglandin dehydrogenase in non-small-cell lung cancer. Cancer Res 67:5587-5593], 20 μM SB203580 (p38 MAPK inhibitor [Hsieh, Y H, et al., (2007) p38 mitogen-activated protein kinase pathway is involved in protein kinase Calpha-regulated invasion in human hepatocellular carcinoma cells. Cancer Res 67:4320-4327].
For primary mouse macrophages or THP-1, cells were seeded (2×10^4 cells in 96-well plate or 2×10^6 cells in six-well plate) and were stimulated with […] of E. coli LPS (Sigma) and/or transiently transfected with […] of DNA using Lipofectamine™ Reagent and/or introduced with 500 ng/ml peptide using Chariot™ kit (ActiveMotif; Carlsbad, Calif.) prior to LPS treatment, then incubated at 37° C., 5% CO2 overnight. Culture supernatants were harvested and centrifuged at 1,500×g to remove cell debris. Concentrations of mouse or human TNF-α in the supernatant of each well of treated and untreated control cells were measured by ELISA (Abraxis, Warminster, Pa.). ELISA immunoreactivity was quantified by using a microplate reader (Bio-Rad, Hercules, Calif.) and graphed.
To investigate a link between PTP4A3 and the LPS signaling cascade, HP-1 cells were co-treated with 0.1 μg/ml E. coli LPS and/or various inhibitors, sodium orthovanadate (PTP4A3 inhibitor), AG490 (JAK inhibitor), U0126 (ERK inhibitor), SB203580 (p38 MAPK inhibitor) or untreated as control. The supernatants from cell culture at each time point (2, 4, 6, 8, 10, 12, 14 and 16 hours post stimulation) were collected and the potential role of these inhibitors on TNF-α production was measured by ELISA (Abraxis; […].). In parallel mRNA from each experimental group was prepared and quantified by RT-PCR.

PTP4A3 gene expression = assay: PTP4A3 expression by RT-PCR in LPS plus inhibitor treated THP-1 cells; assay type: cell-based, human; settings: time course
Experimental: THP-1 cells were differentiated with 100 nM phorbol-12-myristate-13-acetate (PMA) and seeded (1×10^5) in 6-well plates overnight. After washing by PBS, cells were stimulated with 0.1 mg/ml E. coli LPS for 3 hrs. The cells were washed with PBS again and treated with various inhibitors. 10 μM Sodium orthovandate, 20μM AG490, 20μM U0126, 20μM SB203580 or untreated as control. 200μl of supernatant was collected for ELISA assay (A) from each treatment at 2, 4, 6, 8, 12, 14 and 16 hours and its corresponding mRNA was prepared for RT-PCR (B) by first extracting total RNA from the treated cells using QIAQuick™ RNA miniprep (Qiagen). 1μg of each RNA was used to generate cDNA with Platinum® Quantitative RT-PCR ThermoScript™ One-Step System kit (Invitrogen). 10 ng pf cDNA from each test was PCRed using PTP4A3 forward primer 5′-ATGGCTCGGATGAACCGC-3′ [SEQ ID NO: 2] and reverse primer 5′-CTACATAACGCAGCACCG-3′ [SEQ ID NO: 3]. Another 1 ng of cDNA was PCRed using GAPDH primer pairs (Invitrogen) as control. Densitometric analysis (C) of RT-PCR (B) with intensity values normalized to GAPDH and using 0 hour value as reference intensity.
The PCR or RT-PCR was performed following manufacturer's instructions.

[2] = test system: LPS-induced TNF-α expression; settings: monocyte cells, 'current studies'; cited from earlier work
[3] = test system: p38α/LITAF signaling pathway; assay: Western blot of p38α/LITAF signaling pathway in LPS-treated THP-1 cells after PTP4A3 overexpression or RNAi; assay type: cell-based, human
Experimental: THP-1 cells (1×10^5) were stimulated with 0.1 μg/ml E. coli LPS for 3 hours. The cells were washed and transiently transfected with DNAs above using Lipofectamine™ reagent (Invetrogen). Treated cells were then incubated overnight. The supernatants from each culture were measured by ELISA. Elisa immunoreactivity was quantified using a microplate reader (Bio-Rad) and graphed (A). […] THP-1 cells (B) or mouse macrophage cells (C) were stimulated with 0.1 μg/ml E. coli LPS alone for 3 hours and then transfected with 1 μg/ml pcHAPTP DNA (B & C, lane 3) or 1 μg/ml pcDNA (B & C, lane 2) and untreated (B & C, lane 1) as controls by Lipofectamine reagent. Treated cells were incubated overnight and lysed. […]
THP-1 cells (5×10^6) matured by treatment with 200 nM phorbol 12-myristate 13-acetate (Sigma) were treated or untreated with 0.1 μg/ml LPS (Sigma) for 3 h and washed with PBS. […] The protein lysate from the treated or untreated cells were analyzed by Western blotting. […]
LITAF remains inactivated in the absence of p38 MAP kinase (p38α) and the inhibition of p38α down-regulates cytokines such as TNF-α [Tang, X, et al., (2006) LPS-induced TNF-alpha factor (LITAF)-deficient mice express reduced LPS-induced cytokine: Evidence for LITAF-dependent LPS signaling pathways. […] The lysate protein from each treated cell culture was detected by Western blot analysis. […]

| Compound | LPS-induced TNF-α expression compared to LPS alone [1] | PTP4A3 expression (RT-PCR) (PTP4A3 gene expression) | LPS-induced TNF-α expression at protein and mRNA levels [2] | further results |
| --- | --- | --- | --- | --- |
| N#C/C(=C/c1ccc(O)c(O)c1)C(=O)NCc1ccccc1 [AG490] | did not result in a significant decrease | at a maximum between 8-10 hrs | – | TNF-α levels within 8-10 hrs post treatment [1]: did not increase at all |
| CO[C@H]1[C@@H](OC)C[C@H](C)[C@@H](OC)C2=CC(=O)C=C(NC(=O)/C(C)=C/C=C\[C@H](OC)[C@@H](OC(N)=O)/C(C)=C/[C@@H]1C)C2=O [Herbimycin-A] | – | – | markedly attenuated | – |
| C[S+]([O-])c1ccc(-c2nc(-c3ccncc3)c(-c3ccc(F)cc3)[nH]2)cc1 (centres unmarked) [SB203580] | significant decrease | at a maximum between 8-10 hrs | – | – |
| N#CC(=C(/N)Sc1ccccc1N)/C(C#N)=C(\N)Sc1ccccc1N [U0126] | did not result in a significant decrease | at a maximum between 8-10 hrs | – | TNF-α levels within 8-10 hrs post treatment [1]: did not increase at all |
| O=c1c(-c2ccc(O)cc2)coc2cc(O)cc(O)c12 [genistein] | – | – | markedly attenuated | – |
| [Na+].[Na+].[Na+].[O]=[V]([O-])([O-])[O-] [sodium orthovanadate, Sodium orthovanadate] | did not result in a significant decrease | No such maximum occurred | further enhanced | LPS-induced expression of TNF-α on co-treatment ([1]; LPS and orthovanadate, FIG. 1, 8-16 hrs): augmented; concentration of secreted TNF-α higher than LPS only treated cells ([1]; on average, at the 8 hr mark and beyond, LPS + 10 μM sodium orthovanadate): 20% |
| GUACGAGGACGCCAUCCAGUU & AACUGGAUGGCGUCCUCGUAC (listed as RNA, chemistry not given here) [RNAi, small interfering RNA (siRNA) specific for PTP4A3] | – | – | – | p38α phosphorylation in response to LPS ([3]; FIG. 4D, 100 nM siRNA or 0.5 mg pcHAPTP): significantly increased; ability of overexpressed PTP4A3 to dephosphorylate p38 ([3]; pcHAPTP plus RNAi, FIG. 4D lane 5): suppressed |
